Test results reported in US20250170139A1, “AZASETRON FOR THE TREATMENT OF SUDDEN SENSORINEURAL HEARING LOSS” (SENSORION, priority 2022, published 2025).

Legend:
[1] = tested on: subjects suffering from sudden sensorineural hearing loss (SSNHL); assay: Phase 2b/3 study: change in pure tone audiometry (PTA) from baseline in affected ear; format: in vivo, human
Protocol: (§1) A randomized, double-blind, placebo-controlled, parallel-group phase 2b/3 study was conducted with the aim to assess efficacy and safety of (R)-azasetron in subjects suffering from sudden sensorineural hearing loss. Treatment was administered for 4 weeks (i.e., 28 days) and the study was concluded with an 8-week follow-up at day 84.
(§2) Subjects were included in the study if they presented with sudden sensorineural hearing loss (SSNHL) and met the following criteria: • male or female, • aged at least 18 years old, • subjects with unilateral idiopathic SSNHL or unilateral/bilateral acute acoustic trauma leading to SSNHL defined by both: • at least one hearing threshold of 50 dB or more amongst the 3 most affected contiguous frequencies on pure tone audiometric air conduction testing performed 24 hours or less prior to first study drug intake, and • mean hearing loss of 30 dB or more, averaged across the 3 most affected contiguous frequencies on pure tone audiometric air conduction testing performed 24 hours or less prior to first study treatment, compared with the unaffected contralateral ear or reference values from a pre-existing audiogram (dated less than 2 years) • subjects with sudden hearing loss with onset within 96 hours prior to first study drug intake.
As indicated above, hearing loss was determined with pure tone audiometry (PTA) or pure tone audiometric testing, in particular with pure tone audiometric air conduction testing.
In the present study, pure tone air- and bone-conduction hearing thresholds were determined for each ear (best ear at first) at 0.25, 0.5, 1, 2, 3, 4, 6, and 8 kHz for air conduction and at 0.5, 1, 2, 3, 4 kHz for bone conduction, using the descending method of limits (modified Hughson Westlake procedure as follows: initial descent towards threshold is accomplished in 10-dB steps. Beginning with the first nonresponse, level is increased by 5-dB for each non-response and decreased by 10-dB after each correct detection response). The hearing threshold was defined as the lowest audible level, measured twice out of three presentations to the subject.
The baseline pure tone audiometry test was defined as the last test performed at site within 24 hours prior to the first study drug administration. The PTA was expressed as the average of the hearing threshold (in dB) of the 3 most affected contiguous test frequencies (air conduction). Therefore, a higher PTA corresponds to a higher hearing threshold and thus to a poorer hearing. Conversely, a lower PTA corresponds to a lower hearing threshold and thus to a better hearing.
The hearing loss was defined as the difference between the PTA expressed as the average of the hearing threshold (in dB) at the 3 most affected contiguous test frequencies (air pure tone average) and the corresponding PTA expressed as the average hearing threshold of the contralateral ear or values from a pre-existing audiogram (dated less than 2 years) for the same frequencies (mandatory for bilateral acute acoustic trauma). The contiguous frequencies used to determine the PTA at baseline remained fixed for all subsequent evaluations. In case of bilateral acute acoustic trauma leading to sudden sensorineural hearing loss, the most affected ear according to the inclusion criteria was considered for the analysis. If both ears were equally affected, the right ear was considered.
134 subjects were assessed for eligibility according to the criteria listed above. […]

[2] = tested on: subjects suffering from sudden sensorineural hearing loss (SSNHL); assay: Phase 2b/3 study: speech discrimination test, change in word recognition score (WRS) from baseline; format: in vivo, human; conditions: SENS-401 29 mg/BID
Protocol: as §1, §2
134 subjects were assessed for eligibility according to the criteria listed above. 115 subjects were randomized with a ratio 1:1:1 in the three following groups (i.e., treatment arms): • 38 subjects were included in the group administered for 28 days (i.e., 4 weeks) with placebo, • 38 subjects were included in the group administered for 28 days (i.e., 4 weeks) with a “low” dose of (R)-azasetron, defined as a total daily dose of 58 mg of (R)-azasetron (corresponding to a daily dose of 40 mg free base equivalent); and • 39 subjects were included in the group administered for 28 days (i.e., 4 weeks) with a “high” dose of (R)-azasetron, defined as a total daily dose of 87 mg of (R)-azasetron (corresponding to a daily dose of 60 mg free base equivalent).
Subjects were administered placebo or (R)-azasetron (also designated as SENS-401) for 28 days (i.e., 4 weeks). (R)-azasetron was administered orally twice a day either at a dose of 29 mg/BID (bis in die) or at a dose of 43.5 mg/BID (corresponding to a total daily dose of 40 mg and 60 mg free base equivalent, respectively).
Subjects included in the study were monitored with a first visit at day −4 to day 0 (screening), followed by a visit at day 1 (D1-randomization and inclusion day), day 7 (D7, ±2 days), day 14 (D14, ±2 days), day 28 (D28±3 days−end of treatment), and day 84 (D84±3 days-follow-up visit marking the end of study). Monitoring included audiometric tests (PTA), speech audiometry, numerical rating scales and questionnaires. Additionally, subjects included in the study were closely monitored for adverse events throughout the study.
Additionally, the efficacy of SENS-401 was also assessed by conducting speech audiometry, in particular by conducting a speech discrimination test (also known as word recognition test) to determine a word recognition score (WRS).
Speech discrimination or word recognition is the ability to repeat correctly an open set of monosyllabic words at supra threshold intensity (for example at 60 dB or at 80 dB). The word recognition score (WRS) is thus the percentage of test words correctly repeated by the subject. The test is administered in a quiet room without any competing noise. […]

[3] = day 28, SENS-401 high 43.5 mg/BID, subpopulation PTA at baseline ≥80 dB (idiopathic SSNHL, corticoids)
[4] = day 28, SENS-401 high 43.5 mg/BID, subpopulation PTA at baseline ≥90 dB (idiopathic SSNHL, corticoids)
[5] = day 28, SENS-401 low 29 mg/BID (40 mg/day free base equivalent), ITT overall study population, idiopathic SSNHL who received corticoids
[6] = day 28, SENS-401 low 29 mg/BID, subpopulation PTA at baseline ≥80 dB & initial frequency range ≤2000 Hz (idiopathic SSNHL, corticoids)
[7] = day 84, SENS-401 high 43.5 mg/BID (60 mg/day free base equivalent), overall study population, idiopathic SSNHL who received corticoids
[8] = day 84, SENS-401 high 43.5 mg/BID, subpopulation PTA at baseline ≥80 dB (idiopathic SSNHL, corticoids)
[9] = day 84, SENS-401 high 43.5 mg/BID, subpopulation PTA at baseline ≥90 dB (idiopathic SSNHL, corticoids)
[10] = day 84, SENS-401 high 43.5 mg/BID, subpopulation initial hearing loss ≥91 dB (ASHA Profound; idiopathic SSNHL, corticoids)
[11] = day 84, SENS-401 low 29 mg/BID (40 mg/day free base equivalent), ITT overall study population
[12] = day 84, SENS-401 low 29 mg/BID (40 mg/day free base equivalent), ITT overall study population, idiopathic SSNHL who received corticoids
[13] = day 84, SENS-401 low 29 mg/BID, subpopulation PTA at baseline ≥80 dB & initial frequency range ≤2000 Hz (idiopathic SSNHL, corticoids)
[14] = day 84, SENS-401 low 29 mg/BID, subpopulation initial frequency range ≤2000 Hz (of overall study population)
[15] = day 84, SENS-401 low 29 mg/BID, subpopulation initial hearing loss ≥91 dB (ASHA Profound; idiopathic SSNHL, corticoids)
[16] = day 84, SENS-401 low 29 mg/BID, subpopulation vertigo at baseline (idiopathic SSNHL, corticoids)

CN1C(=O)COc2c(C(=O)N[C@H]3CN4CCC3CC4)cc(Cl)cc21 [SENS-401, (R)-azasetron besylate]
ΔPTA SENS-401 vs placebo ([1]; day 28, SENS-401 29 mg/BID (40 mg/day free base equivalent), subpopulation PTA at baseline ≥80 dB (idiopathic SSNHL, corticoids), in dB): −15.2188
ΔPTA SENS-401 vs placebo ([1]; day 28, SENS-401 29 mg/BID (40 mg/day free base equivalent), subpopulation PTA at baseline ≥90 dB (idiopathic SSNHL, corticoids), in dB): −13.9239
ΔPTA SENS-401 vs placebo ([1]; day 28, SENS-401 29 mg/BID, subpopulation hearing loss at baseline ≥91 dB (idiopathic SSNHL, corticoids)): −19.8922 dB
ΔPTA SENS-401 vs placebo ([1]; day 28, SENS-401 29 mg/BID, subpopulation vertigo at baseline (idiopathic SSNHL, corticoids), in dB): −14.0995
ΔPTA SENS-401 vs placebo ([1]; day 28, SENS-401 43.5 mg/BID, subpopulation hearing loss at baseline ≥91 dB (idiopathic SSNHL, corticoids), in dB): −14.8893
Mean change in PTA from baseline ([1]; day 28, SENS-401 high 43.5 mg/BID oral (60 mg/day free base equivalent) 28 days, ITT overall study population, idiopathic SSNHL who received corticoids): −41.8636 dB
Mean change in PTA from baseline [1, 3]: −54.4635 dB
ΔPTA SENS-401 vs placebo [1, 3]: −17.7765 dB
Mean change in PTA from baseline [1, 4]: −53.6800 dB
ΔPTA SENS-401 vs placebo [1, 4]: −23.2680 dB
Mean change in PTA from baseline [1, 5]: −42.0761 dB
ΔPTA SENS-401 vs placebo [1, 5]: −4.1236 dB
Mean change in PTA from baseline [1, 6]: −59.0918 dB
ΔPTA SENS-401 vs placebo [1, 6]: −21.7623 dB
ΔPTA SENS-401 vs placebo ([1]; day 84, SENS-401 29 mg/BID (40 mg/day free base equivalent), subpopulation PTA at baseline ≥80 dB (idiopathic SSNHL, corticoids), in dB): −19.4991
ΔPTA SENS-401 vs placebo ([1]; day 84, SENS-401 29 mg/BID (40 mg/day free base equivalent), subpopulation PTA at baseline ≥90 dB (idiopathic SSNHL, corticoids), in dB): −19.0242
Mean change in PTA from baseline [1, 7]: −46.3161 dB
ΔPTA SENS-401 vs placebo [1, 7]: −9.0984 dB
Mean change in PTA from baseline [1, 8]: −61.2123 dB
ΔPTA SENS-401 vs placebo [1, 8]: −25.6472 dB
Mean change in PTA from baseline [1, 9]: −57.7398 dB
ΔPTA SENS-401 vs placebo [1, 9]: −28.6788 dB
Mean change in PTA from baseline [1, 10]: −44.9102 dB
ΔPTA SENS-401 vs placebo [1, 10]: −26.2796 dB
Mean change in PTA from baseline [1, 11]: −32.4686 dB
ΔPTA SENS-401 vs placebo [1, 11]: −7.0694 dB
Mean change in PTA from baseline [1, 12]: −45.9263 dB
ΔPTA SENS-401 vs placebo [1, 12]: −8.7086 dB
Mean change in PTA from baseline [1, 13]: −61.7417 dB
ΔPTA SENS-401 vs placebo [1, 13]: −26.6903 dB
Mean change in PTA from baseline [1, 14]: −44.6900 dB
ΔPTA SENS-401 vs placebo [1, 14]: −11.6405 dB
Mean change in PTA from baseline [1, 15]: −46.6683 dB
ΔPTA SENS-401 vs placebo [1, 15]: −28.0377 dB
Mean change in PTA from baseline [1, 16]: −44.8233 dB
ΔPTA SENS-401 vs placebo [1, 16]: −21.8040 dB
ΔWRS SENS-401 vs placebo ([2]; day 28, subpopulation PTA at baseline ≥70 dB (of overall study population)): 12.9673%
ΔWRS SENS-401 vs placebo ([2]; day 28, WRS assessed at 60 dB, subpopulation vertigo at baseline): 35.5287%
ΔWRS SENS-401 vs placebo ([2]; day 28, WRS at 60 dB, overall study population): 8.8241%
ΔWRS SENS-401 vs placebo ([2]; day 84, WRS assessed at 60 dB, subpopulation vertigo at baseline): 53.1273%
change in WRS from baseline (effect vs placebo, in words) ([2]; day 84, WRS at 80 dB, subpopulation vertigo at baseline): significant beneficial effect
